Data reported in paper PMC7954794, “Protein context shapes the specificity of SH3 domain-mediated interactions in vivo” (Nature Communications, 2021).

System: 575 putative partners (preys) of 22 WT SH3-containing proteins
Experiment: DHFR-PCA on solid medium, WT and SH3-deleted baits (Fig. 1B)
Assay type: cell-based, Saccharomyces cerevisiae
Parameters: key to Score: 0: SH3-independent; 1: SH3-dependent PPIs; 2: SH3-inhibited PPIs
Conditions: for SH3-dependent PPIs: number of PPIs, SH3 domain in its own protein, DHFR-PCA, Fig2D,S2F
How it was run: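 In S. cerevisiae, 22 SH3-containing baits fused genomically to DHFR F[1,2], either WT or with each SH3 replaced via CRISPR by a poly-Gly/Ser linker, screened against 575 DHFR F[3] preys plus 40 negative controls in 1536 arrays, preys duplicated at randomized positions.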

| Substance | SH3-dependent PPIs | medrep (log2 median colony size normalized to plate background, PCA score) (bait SLA1-3, DHFR-PCA, label = prey, Replicates 4 (2 for YCR009C, YDR388W, YIL033C)) | Score (bait SLA1-3, label = prey) |
| --- | --- | --- | --- |
| CDC25 | 3 | – | – |
| RVS167 | 31 | – | – |
| YAL005C | – | 5.601 | 0 |
